According to patent US6673813B2, “Methods for identifying and treating resistant tumors” (priority 1994, dated 2004):

Test system: HL60/ADR cells
Assay: Assay for reversal of Adriamycin resistance (cell growth, MTS)
Assay type: cell-based, human
Conditions: test compound in addition to Adriamycin, samples diluted to 20 μM, 25 μl per 100 μl well, 72 hours
Text: HL60/ADR is a continuous cell line, which was selected for Adriamycin™ resistance by culturing HL60, a human acute myeloblastic leukemia cell line, in increasing concentrations of Adriamycin™ until a highly resistant variant was attained. (McGrath, T., et al., Biochem. […] Marquardt, D. and Center, M. S., Cancer Res., 52: 3157, (1992); and Marquardt, D., et al., Cancer Res., 50: 1426, (1990)). […] Cells were harvested; washed twice with assay medium (same as culture media); counted; and diluted to 2×10^5 cells/ml in assay medium. Fifty μl of cells were aliquoted into wells of a 96 well tissue culture plate. One column of each 96 well plate served as a negative control and received assay medium containing no cells. Test compounds and references compounds were dissolved in dimethyl sulfoxide (DMSO) at a concentration of 5 mM. […] Assay standards were run in quadruplicate. 25 μl of 0.4% DMSO was added to four wells as a solvent control. […] The plates were incubated at 37° Centigrade for 72 hours in a humidified incubator with a 5% CO2 atmosphere. A CellTiter96 Aqueous Assay Kit (Promega) was used to measure cell viability and vitality via […] of a tetrazolium salt. The assay was performed in accordance with the vendors instructions, which required 2 ml of MTS reagent being mixed with 0.1 ml of PMS reagent and 20 μl of this solution was added to each well. The plates were incubated for 3 hours at 37° C. Absorbance was determined at 490 nm using a microtitre plate reader. The ability of a test compound to reverse the resistance of HL60/ADR cells to Adriamycin was determined by comparison of the absorbance of the wells containing a test compound in addition to Adriamycin with the absorbance of wells containing Adriamycin without a test compound. Controls were used to eliminate background and to ensure the results were not artifactual. The results of the assay are expressed as percent inhibition of cell growth.

Compound	% Inhibition (percent inhibition of cell growth)
CCCc1c(OCCCOc2cc(O)c(-c3ccc(F)cc3)cc2CC)ccc2c1OC(C(=O)O)CC2 (stereo not drawn) [Example 1, 8-Propyl-7-[3-[4-(4-fluorophenyl)-2-ethyl-5-hydroxyphenoxy]propoxy]-3,4-dihydro-2H-1-benzopyran-2-carboxylic acid]	54%
CCCc1c(OCCCOc2cc(O)c(-c3ccccc3)cc2CC)cccc1Oc1ccccc1C(=O)[O-].[Na+] [Example 2, 2-[2-Propyl-3-[3-(2-ethyl-5-hydroxy-4-phenylphenoxy)-propoxy]phenoxy]benzoic acid sodium salt hemihydrate]	63%
CCCc1c(OCCCOc2cc([O-])c(-c3ccccc3)cc2CC)cccc1Oc1ccccc1-c1nnn[n-]1.[Na+].[Na+] [Example 3, 5-Ethyl-4-[3-[2-propyl-3-[2-(2H-tetrazol-5-yl)phenoxy]phenoxy]propoxy][1,1′-biphenyl]-2-ol disodium salt sesquihydrate]	55%
CCCc1c(OCCCOc2cc([O-])c(-c3ccccc3)cc2CC)cccc1Oc1cccc(F)c1C(=O)[O-].[Na+].[Na+] [Example 4, 2-Fluoro-6-[2-propyl-3-[3-(2-ethyl-5-hydroxy-4-phenylphenoxy)propoxy]phenoxy]benzoic acid disodium salt]	38%
CCCc1c(OCCCOc2cc(O)c(-c3ccc(F)cc3)cc2CC)cccc1Oc1ccccc1C(=O)[O-].[Na+] [Example 5, 2-[2-Propyl-3-[3-[2-ethyl-4-(4-fluorophenyl)-5-hydroxyphenoxy]propoxy]phenoxy]benzoic acid sodium salt]	23%
CCCc1c(OCCCOc2cc(O)c(-c3ccc(F)cc3)cc2CC)cccc1Oc1cccc(F)c1C(=O)[O-].[Na+] [Example 6, 2-Fluoro-6-[2-propyl-3-[3-[2-ethyl-5-hydroxy-4-(4-fluorophenyl)phenoxy]propoxy]phenoxy]benzoic acid disodium salt hydrate]	35%
CCCc1c(OCCCCOc2cc(O)c(-c3ccc(F)cc3)cc2CC)cccc1Oc1ccccc1C(=O)O [Example 9, 2-[2-Propyl-3-[4-[2-ethyl-5-hydroxy-4-(4-fluorophenyl)-phenoxy]butoxy]phenoxy]benzoic acid sesquihydrate]	61%
CCCCc1c(OCCCOc2cc(O)c(-c3ccc(F)cc3)cc2CC)cccc1Oc1ccccc1C(=O)O [Example 11, 2-[2-Butyl-3-[3-[2-ethyl-5-hydroxy-4-(4-fluorophenyl)phenoxy]propoxy]phenoxy]benzoic acid hydrate]	47%
CCc1cc(-c2ccc(F)cc2)c(O)cc1OCCCOc1cccc(Oc2ccccc2C(=O)O)c1Cc1ccccc1 [Example 12, 2-[2-(Phenylmethyl)-3-[3-[2-ethyl-5-hydroxy-4-(4-fluorophenyl)phenoxy]propoxy]phenoxy]benzoic acid]	62%
CCCc1c(OCCCOc2cc(O)c(-c3ccc(F)cc3)cc2CC)cccc1C(=O)c1ccccc1C(=O)O [Example 13, 2-[2-Propyl-3-[3-[2-ethyl-5-hydroxy-4-(4-fluorophenyl)phenoxy]propoxy]benzoyl]benzoic acid]	64%
CCCc1c(OCCCOc2cc(O)c(-c3ccc(F)cc3)cc2CC)cccc1S(=O)(=O)c1ccccc1C(=O)O [Example 17, 2-[2-Propyl-3-[3-[2-ethyl-4-(4-fluorophenyl)-5-hydroxyphenoxy]propoxy]phenylsulfonyl]benzoic acid hydrate]	25%
CCCc1c(OCCCOc2ccc(C(C)=O)c(OC)c2CCC)ccc2c1OC(C(=O)O)CC2 (stereo not drawn) [Example 18, 8-Propyl-7-[3-[4-acetyl-3-methoxy-2-propylphenoxy]propoxy]-3,4-dihydro-2H-1-benzopyran-2-carboxylic acid]	67%
